ChEMBL document CHEMBL4630909 (2021)

Tests used:
[1] = molecular target: GABA-A receptor; anion channel; experiment: (§1) Cross screening panel; assay type: protein-complex assay
Protein polybromo-1 = Protein polybromo-1 (Homo sapiens, UniProt Q86U86); experiment: PBRM1(5) DiscoverX BROMOscan
Peregrin = Peregrin (Homo sapiens, UniProt P55201); experiment: BRPF1 DiscoverX BROMOscan
[2] = molecular target: Transcription initiation factor TFIID subunit 1-like (Homo sapiens, UniProt Q8IZX4); experiment: TAF1L(2) DiscoverX BROMOscan
[3] = molecular target: Muscarinic acetylcholine receptor M5 (Homo sapiens) (UniProt P08912); details: Compound concentration 10.0 uM
[4] = molecular target: Muscarinic acetylcholine receptor M3 (Homo sapiens) (UniProt P20309); details: Compound concentration 10.0 uM
Adenosine receptor A2a = Adenosine receptor A2a (Homo sapiens, UniProt P29274); experiment: as §1
Histamine H1 receptor = Histamine H1 receptor (Homo sapiens, UniProt P35367); experiment: as §1
[5] = molecular target: Aryl hydrocarbon receptor (Homo sapiens, UniProt P35869); experiment: as §1
[6] = molecular target: T1, 5-hydroxytryptamine receptor 2A (Homo sapiens, UniProt P28223); experiment: as §1
T1 sequence (P28223 whole entry): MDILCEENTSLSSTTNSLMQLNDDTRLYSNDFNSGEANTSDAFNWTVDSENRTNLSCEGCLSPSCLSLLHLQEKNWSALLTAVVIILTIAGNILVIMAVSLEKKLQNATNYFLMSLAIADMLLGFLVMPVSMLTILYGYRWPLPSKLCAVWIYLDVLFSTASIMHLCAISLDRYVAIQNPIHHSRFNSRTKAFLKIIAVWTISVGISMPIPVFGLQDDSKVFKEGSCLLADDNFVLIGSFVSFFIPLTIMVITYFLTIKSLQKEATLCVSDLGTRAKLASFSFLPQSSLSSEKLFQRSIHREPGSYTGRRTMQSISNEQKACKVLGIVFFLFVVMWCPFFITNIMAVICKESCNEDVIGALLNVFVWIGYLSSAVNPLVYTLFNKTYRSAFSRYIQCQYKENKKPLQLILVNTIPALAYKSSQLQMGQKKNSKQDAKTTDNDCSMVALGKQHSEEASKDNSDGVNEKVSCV

[7] = molecular target: 5-hydroxytryptamine receptor 2C (Homo sapiens, UniProt P28335); experiment: as §1
Sequence of 5-hydroxytryptamine receptor 2C (P28335 whole entry): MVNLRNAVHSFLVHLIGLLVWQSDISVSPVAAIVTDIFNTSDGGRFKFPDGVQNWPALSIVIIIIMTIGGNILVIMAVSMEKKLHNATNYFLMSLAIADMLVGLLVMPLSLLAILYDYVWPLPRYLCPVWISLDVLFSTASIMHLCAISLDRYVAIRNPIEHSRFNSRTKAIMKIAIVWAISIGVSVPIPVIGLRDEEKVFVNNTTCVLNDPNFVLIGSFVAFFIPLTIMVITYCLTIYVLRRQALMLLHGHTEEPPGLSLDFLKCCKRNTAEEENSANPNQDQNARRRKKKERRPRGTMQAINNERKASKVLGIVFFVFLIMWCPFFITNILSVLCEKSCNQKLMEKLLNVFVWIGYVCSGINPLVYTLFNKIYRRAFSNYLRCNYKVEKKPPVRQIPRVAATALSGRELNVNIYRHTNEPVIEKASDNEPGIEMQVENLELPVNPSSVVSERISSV

[8] = molecular target: Alpha-1B adrenergic receptor (Homo sapiens, UniProt P35368); experiment: as §1
Acetylcholinesterase = Acetylcholinesterase (Homo sapiens, UniProt P22303); experiment: as §1
[9] = molecular target: Tyrosine-protein kinase Lck (Homo sapiens, UniProt P06239); experiment: as §1
[10] = molecular target: Sodium channel protein type 5 subunit alpha (Homo sapiens, UniProt Q14524); experiment: as §1
D(1A) dopamine receptor = D(1A) dopamine receptor (Homo sapiens, UniProt P21728); experiment: as §1
[11] = molecular target: Prostaglandin G/H synthase 2 (Homo sapiens, UniProt P35354); experiment: as §1
D(2) dopamine receptor = D(2) dopamine receptor (Homo sapiens, UniProt P14416); experiment: as §1
Sequence of D(2) dopamine receptor (P14416 whole entry): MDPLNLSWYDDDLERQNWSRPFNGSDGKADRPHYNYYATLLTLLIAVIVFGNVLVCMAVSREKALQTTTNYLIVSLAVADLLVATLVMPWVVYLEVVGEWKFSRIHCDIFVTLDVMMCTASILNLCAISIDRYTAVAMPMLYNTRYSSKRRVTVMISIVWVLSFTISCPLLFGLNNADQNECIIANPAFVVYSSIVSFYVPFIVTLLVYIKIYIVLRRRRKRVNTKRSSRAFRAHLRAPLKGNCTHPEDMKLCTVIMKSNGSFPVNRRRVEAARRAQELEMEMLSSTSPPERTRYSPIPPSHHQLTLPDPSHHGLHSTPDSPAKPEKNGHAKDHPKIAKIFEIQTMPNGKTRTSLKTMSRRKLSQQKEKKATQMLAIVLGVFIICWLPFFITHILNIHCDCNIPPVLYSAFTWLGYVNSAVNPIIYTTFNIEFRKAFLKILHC

[12] = molecular target: 3',5'-cyclic-AMP phosphodiesterase 4B (Homo sapiens, UniProt Q07343); experiment: as §1
[13] = molecular target: 5-hydroxytryptamine receptor 3A (Homo sapiens, UniProt P46098); experiment: as §1
Sequence of 5-hydroxytryptamine receptor 3A (P46098 whole entry): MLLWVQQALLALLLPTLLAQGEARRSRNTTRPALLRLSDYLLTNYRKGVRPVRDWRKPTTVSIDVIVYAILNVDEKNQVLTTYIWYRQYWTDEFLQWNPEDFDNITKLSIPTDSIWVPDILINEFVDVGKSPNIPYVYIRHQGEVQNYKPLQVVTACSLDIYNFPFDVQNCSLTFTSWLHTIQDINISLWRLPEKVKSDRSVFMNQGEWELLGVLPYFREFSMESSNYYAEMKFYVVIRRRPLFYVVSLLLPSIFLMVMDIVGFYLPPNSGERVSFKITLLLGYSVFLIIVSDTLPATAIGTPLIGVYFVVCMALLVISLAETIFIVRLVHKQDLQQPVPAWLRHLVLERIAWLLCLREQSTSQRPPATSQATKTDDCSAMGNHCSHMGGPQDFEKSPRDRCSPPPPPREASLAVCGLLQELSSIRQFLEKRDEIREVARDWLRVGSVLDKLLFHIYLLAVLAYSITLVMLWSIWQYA

Mu-type opioid receptor = Mu-type opioid receptor (Homo sapiens, UniProt P35372); experiment: as §1
[14] = molecular target: Glutamate receptor ionotropic, NMDA 2B (Homo sapiens, UniProt Q13224); experiment: as §1
Cannabinoid receptor 2 = Cannabinoid receptor 2 (Homo sapiens, UniProt P34972); experiment: as §1
[15] = molecular target: Sodium-dependent serotonin transporter (Homo sapiens, UniProt P31645); experiment: as §1
Aurora kinase B = Aurora kinase B (Homo sapiens, UniProt Q96GD4); experiment: as §1
[16] = molecular target: Solute carrier organic anion transporter family member 1B1 (Homo sapiens, UniProt Q9Y6L6); experiment: as §1
[17] = molecular target: Sodium-dependent noradrenaline transporter (Homo sapiens, UniProt P23975); experiment: as §1
[18] = molecular target: Acetylcholine receptor subunit alpha (Homo sapiens, UniProt P02708); experiment: as §1
Sequence of Acetylcholine receptor subunit alpha (P02708 whole entry): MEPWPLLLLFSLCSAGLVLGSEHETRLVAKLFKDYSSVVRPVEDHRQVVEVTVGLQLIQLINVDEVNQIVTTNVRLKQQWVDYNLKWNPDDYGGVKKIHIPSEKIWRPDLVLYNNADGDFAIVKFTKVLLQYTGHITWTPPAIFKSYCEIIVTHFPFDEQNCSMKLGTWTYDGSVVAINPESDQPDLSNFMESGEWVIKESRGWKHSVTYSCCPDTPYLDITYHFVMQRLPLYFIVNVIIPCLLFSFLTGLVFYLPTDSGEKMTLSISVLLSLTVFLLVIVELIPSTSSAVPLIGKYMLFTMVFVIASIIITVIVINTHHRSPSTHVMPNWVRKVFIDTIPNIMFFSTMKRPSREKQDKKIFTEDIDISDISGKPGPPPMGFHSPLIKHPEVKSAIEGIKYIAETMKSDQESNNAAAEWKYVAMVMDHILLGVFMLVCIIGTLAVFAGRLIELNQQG

[19] = molecular target: Beta-2 adrenergic receptor (Homo sapiens, UniProt P07550); experiment: as §1
Sequence of Beta-2 adrenergic receptor (P07550 whole entry): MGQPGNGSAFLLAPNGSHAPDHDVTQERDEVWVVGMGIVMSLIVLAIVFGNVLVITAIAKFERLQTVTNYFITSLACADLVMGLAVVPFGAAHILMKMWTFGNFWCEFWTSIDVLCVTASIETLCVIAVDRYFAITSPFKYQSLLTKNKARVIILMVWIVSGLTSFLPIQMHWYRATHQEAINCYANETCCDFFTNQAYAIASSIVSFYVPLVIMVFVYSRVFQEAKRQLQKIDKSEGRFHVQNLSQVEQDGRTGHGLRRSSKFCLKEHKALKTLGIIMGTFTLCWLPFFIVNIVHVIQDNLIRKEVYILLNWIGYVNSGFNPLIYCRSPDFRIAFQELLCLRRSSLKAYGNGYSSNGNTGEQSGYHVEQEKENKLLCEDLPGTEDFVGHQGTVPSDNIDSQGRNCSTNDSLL

[20] = molecular target: Potassium voltage-gated channel subfamily A member 5 (Homo sapiens, UniProt P22460); experiment: as §1
[21] = molecular target: T2, Kappa-type opioid receptor (Homo sapiens, UniProt P41145); experiment: as §1
T2 sequence (P41145 whole entry): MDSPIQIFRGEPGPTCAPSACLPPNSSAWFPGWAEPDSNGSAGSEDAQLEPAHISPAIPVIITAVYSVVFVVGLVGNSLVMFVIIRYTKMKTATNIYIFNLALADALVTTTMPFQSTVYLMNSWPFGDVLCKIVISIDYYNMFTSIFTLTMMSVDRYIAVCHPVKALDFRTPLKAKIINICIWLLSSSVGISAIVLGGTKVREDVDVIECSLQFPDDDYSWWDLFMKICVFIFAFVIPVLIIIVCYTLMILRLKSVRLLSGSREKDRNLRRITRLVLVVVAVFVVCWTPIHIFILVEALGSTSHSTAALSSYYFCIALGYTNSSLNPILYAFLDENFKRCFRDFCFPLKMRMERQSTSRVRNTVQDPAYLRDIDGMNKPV

Vasopressin V1a receptor = Vasopressin V1a receptor (Homo sapiens, UniProt P37288); experiment: as §1
Sequence of Vasopressin V1a receptor (P37288 whole entry): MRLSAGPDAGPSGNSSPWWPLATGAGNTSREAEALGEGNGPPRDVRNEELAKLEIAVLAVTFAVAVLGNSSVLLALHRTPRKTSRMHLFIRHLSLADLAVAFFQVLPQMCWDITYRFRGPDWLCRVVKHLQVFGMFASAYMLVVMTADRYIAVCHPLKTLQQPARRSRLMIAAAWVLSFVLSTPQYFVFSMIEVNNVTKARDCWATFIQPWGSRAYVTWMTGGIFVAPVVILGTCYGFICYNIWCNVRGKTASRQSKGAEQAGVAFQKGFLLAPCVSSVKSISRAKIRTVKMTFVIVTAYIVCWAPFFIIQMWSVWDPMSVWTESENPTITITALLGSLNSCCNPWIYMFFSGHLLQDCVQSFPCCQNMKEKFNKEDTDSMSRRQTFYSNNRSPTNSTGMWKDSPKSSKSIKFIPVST

[22] = molecular target: 5-hydroxytryptamine receptor 1B (Homo sapiens, UniProt P28222); experiment: as §1
Sequence of 5-hydroxytryptamine receptor 1B (P28222 whole entry): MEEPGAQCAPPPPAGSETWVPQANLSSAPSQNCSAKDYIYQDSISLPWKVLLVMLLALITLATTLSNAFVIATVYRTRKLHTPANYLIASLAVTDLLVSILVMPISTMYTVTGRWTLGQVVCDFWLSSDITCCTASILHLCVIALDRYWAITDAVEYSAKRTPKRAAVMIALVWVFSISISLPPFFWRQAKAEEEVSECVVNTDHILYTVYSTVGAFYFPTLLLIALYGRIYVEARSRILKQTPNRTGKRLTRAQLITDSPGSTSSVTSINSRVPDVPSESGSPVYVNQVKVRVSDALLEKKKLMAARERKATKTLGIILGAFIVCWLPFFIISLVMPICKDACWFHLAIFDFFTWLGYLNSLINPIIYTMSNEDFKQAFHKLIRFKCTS

[23] = molecular target: Muscarinic acetylcholine receptor M2 (Homo sapiens, UniProt P08172); experiment: as §1
Sequence of Muscarinic acetylcholine receptor M2 (P08172 whole entry, canonical isoform): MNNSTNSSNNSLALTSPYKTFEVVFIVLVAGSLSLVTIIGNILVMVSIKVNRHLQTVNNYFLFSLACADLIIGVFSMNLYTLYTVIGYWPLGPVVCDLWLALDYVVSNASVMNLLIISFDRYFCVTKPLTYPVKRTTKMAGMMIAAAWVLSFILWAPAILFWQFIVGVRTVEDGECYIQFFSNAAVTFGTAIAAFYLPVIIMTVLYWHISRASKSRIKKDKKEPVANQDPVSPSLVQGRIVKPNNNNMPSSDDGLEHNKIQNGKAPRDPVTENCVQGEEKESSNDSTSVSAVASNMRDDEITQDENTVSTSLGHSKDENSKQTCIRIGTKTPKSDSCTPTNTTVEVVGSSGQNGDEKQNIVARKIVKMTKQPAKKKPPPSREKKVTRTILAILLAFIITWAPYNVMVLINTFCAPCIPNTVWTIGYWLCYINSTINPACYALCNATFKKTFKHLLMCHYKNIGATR

[24] = molecular target: Phosphatidylinositol 4,5-bisphosphate 3-kinase catalytic subunit gamma isoform (Homo sapiens, UniProt P48736); experiment: as §1
[25] = molecular target: Nuclear receptor subfamily 1 group I member 2 (Homo sapiens, UniProt O75469); experiment: as §1
[26] = molecular target: Amine oxidase [flavin-containing] A (Homo sapiens, UniProt P21397); experiment: as §1
[27] = molecular target: Voltage-dependent L-type calcium channel subunit alpha-1C (Homo sapiens, UniProt Q13936); experiment: as §1
Substance-P receptor = Substance-P receptor (Homo sapiens, UniProt P25103); experiment: as §1
[28] = molecular target: Muscarinic acetylcholine receptor M1 (Homo sapiens, UniProt P11229); experiment: as §1
Sequence of Muscarinic acetylcholine receptor M1 (P11229 whole entry): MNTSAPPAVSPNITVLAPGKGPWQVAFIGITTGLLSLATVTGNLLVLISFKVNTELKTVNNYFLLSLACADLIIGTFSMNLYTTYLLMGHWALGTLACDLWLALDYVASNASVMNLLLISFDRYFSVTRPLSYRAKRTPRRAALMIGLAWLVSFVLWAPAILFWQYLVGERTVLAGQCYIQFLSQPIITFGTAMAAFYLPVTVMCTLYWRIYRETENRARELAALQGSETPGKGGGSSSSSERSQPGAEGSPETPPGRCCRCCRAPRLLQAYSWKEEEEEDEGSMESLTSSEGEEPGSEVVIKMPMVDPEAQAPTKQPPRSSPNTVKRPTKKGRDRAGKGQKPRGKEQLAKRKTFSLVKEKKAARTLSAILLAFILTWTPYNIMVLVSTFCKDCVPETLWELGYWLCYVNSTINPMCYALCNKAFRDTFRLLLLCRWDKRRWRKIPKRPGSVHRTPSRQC

[29] = molecular target: Alpha-2C adrenergic receptor (Homo sapiens, UniProt P18825); experiment: as §1
[30] = molecular target: cGMP-inhibited 3',5'-cyclic phosphodiesterase 3A (Homo sapiens, UniProt Q14432); experiment: as §1
[31] = molecular target: T2, Kappa-type opioid receptor; details: Compound concentration 10.0 uM
[32] = molecular target: Alpha-2C adrenergic receptor (Homo sapiens) (UniProt P18825); details: Compound concentration 10.0 uM
[33] = molecular target: Alpha-1A adrenergic receptor (Homo sapiens) (UniProt P35348); details: Compound concentration 10.0 uM
[34] = molecular target: Beta-3 adrenergic receptor (Homo sapiens) (UniProt P13945); details: Compound concentration 10.0 uM
[35] = molecular target: T1, 5-hydroxytryptamine receptor 2A; details: Compound concentration 10.0 uM

CNC(=O)c1cc(C(=O)NC2CC2)cn(Cc2ccccc2)c1=O [GSK620]
> 31.6 µM: IC50 [9] | IC50 (Aurora kinase B) | IC50 [24]
> 10 µM: EC50 (Cannabinoid receptor 2)
79.4 µM: IC50 [27]
31.6 µM: Kd (Protein polybromo-1) | Kd (Peregrin)
> 50.1 µM: EC50 [13] | IC50 [13] | IC50 [14] | IC50 [16] | EC50 [18] | IC50 [18] | IC50 [20] | IC50 (Vasopressin V1a receptor) | EC50 [23] | IC50 [23] | EC50 [25] | EC50 [28] | IC50 [28]
< 4: pEC50 [1]
> 25.1 µM: IC50 (Histamine H1 receptor) | EC50 [6] | IC50 [6] | EC50 [7] | IC50 [7] | IC50 [8] | IC50 (Substance-P receptor)
inactive: inhibition [3] -5.05% | inhibition [4] 21.4% | inhibition [31] 39.9% | inhibition [32] 0.69% | inhibition [33] -0.64% | inhibition [34] 18.6% | inhibition [35] -8.9%
25.1 µM: Kd [2]
> 100 µM: EC50 (Adenosine receptor A2a) | EC50 [5] | IC50 (Acetylcholinesterase) | IC50 [10] | IC50 (D(1A) dopamine receptor) | IC50 [11] | EC50 (D(2) dopamine receptor) | IC50 (D(2) dopamine receptor) | IC50 [12] | EC50 (Mu-type opioid receptor) | IC50 [15] | IC50 [17] | EC50 [19] | IC50 [19] | EC50 [21] | EC50 [22] | IC50 [22] | IC50 [26] | EC50 [29] | IC50 [30]
